In brackets after ≈: the same amount, converted by molar mass. Read-outs that look alike come from different tables or passages of the source. Bridge positions count the residues as written; N and C are the ends. Square brackets hold non-standard residues; d marks the D form. Peptide text beside a SMILES is read from it. dNMeF = CN[C@H](Cc1ccccc1)C(=O)O
Legend:
[1] = system: Staphylococcus aureus ATCC 29213; experiment: microbe, parasite or virus in culture
In short: (§1)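 Twofold dilutions of DMSO-solubilised peptides (from 512 μg/ml) in Mueller Hinton; 24 h incubation, 37° C; visible growth scored.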

ATCC 29212 = experiment: microbe, parasite or virus in culture; conditions: Enterococcus
In short: as §1

MRSA DR 42412 (sputum) = experiment: microbe, parasite or virus in culture
In short: as §1

MRSA DM21455 (eye) = experiment: microbe, parasite or virus in culture
In short: as §1

MRSA ATCC 700699 = experiment: microbe, parasite or virus in culture
In short: as §1

VRE ATCC 700802 = experiment: microbe, parasite or virus in culture
In short: as §1

M. smegmatis ATCC 607 = experiment: microbe, parasite or virus in culture; conditions: Mycolicibacterium smegmatis, ATCC607
In short: as §1

Pseudomonas aeruginosa = experiment: Activity against Pseudomonas aeruginosa; assay type: cell-based
Excerpt: (§2) The inclusion of 3 arginines in the above case likely perturbs the amphiphilic character of the teixobactin, resulting in a decrease in activity. […] Importantly, the hydrophobic-hydrophilic balance of these analogues was similar to natural teixobactin (two cationic charges). […] The minimum bactericidal concentrations (MBC) of teixobactin analogues against S. aureus/MRSA strains (Table 11) has been further determined. […] In view of narrow MIC distribution values and bactericidal properties, attention was focused on Compound 26 and further investigated its biological properties.

S. aureus ATCC 29213 [2] = experiment: Time-kill kinetics against S. aureus ATCC 29213; assay type: cell-based, Staphylococcus aureus; conditions: 0.5 μg/ml or 1 μg/ml; at 8 h
MRSA ATCC 33591 [3] = system: MRSA ATCC 33591
[4] = system: Staphylococcus saprophyticus ATCC 49453; assay type: cell-based
In short: (§3)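 Serial dilutions prepared in Mueller Hinton through well 11, organisms grown in the same broth and incubated at 37 °C, triplicate runs.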

[5] = system: Bacillus Subtilis ATCC 6633; assay type: cell-based
In short: as §3

[6] = system: Staphylococcus saprophyticus ATCC 15305; assay type: cell-based
In short: as §3

[7] = system: Staphylococcus saprophyticus ATCC 49907; assay type: cell-based
In short: as §3

[8] = system: Staphylococcus saprophyticus ATCC BAA 750; assay type: cell-based
In short: as §3

[9] = system: Bacillus Cereus ATCC 11788; assay type: cell-based
In short: as §3

S. aureus ATCC 29213 [10] = experiment: Mice-eye model of S. aureus keratitis; assay type: in vivo; conditions: for mean corneal thickness: baseline 93.8±2.9 μm
Excerpt: The in vivo efficacy of Compound 26 in the mice-eye model of S. aureus keratitis was examined. S. aureus is one of the major etiological agents for bacterial keratitis and the toxic secretions produced by this microorganism have been implicated in corneal melt, leading to significant morbidity and vision loss. […] A total of 8 doses were applied and the progression of the infection was monitored by slit lamp examination, anterior segment optical coherent tomography (AS-OCT) and microbiological enumeration of the bacterial bioburden. Mice cornea treated with PBS had severe clinical presentation indicated by chemosis, significant presence of hypopyon like materials and corneal infiltrates (FIG. 4).

S. aureus/MRSA strains = experiment: Minimum bactericidal concentrations against S. aureus/MRSA strains; assay type: cell-based, Staphylococcus aureus; conditions: tested S. aureus/MRSA strains
Excerpt: as §2

VRE ATCC 29212 = experiment: microbe, parasite or virus in culture; conditions: ATCC 29212
In short: as §1

MRSA ATCC 33591 [11] = conditions: MRSA ATCC 33591
In short: as §1

[12] = system: panel of antibiotic-resistant and antibiotic susceptible Gram-positive pathogens; conditions: average over tested strains
In short: as §1

[13] = system: human primary dermal fibroblasts (hDFs); experiment: in vitro
Method: (§4) It was important to evaluate the cytotoxicity of Compound 26 on mammalian cells prior to in vivo studies. The cytotoxicity of Compound 26 in human lung epithelial cell line A549 and primary dermal fibroblasts (hDFs) was determined. Both of these cell culture models are already established for evaluation of cytotoxicity of antimicrobial peptides.
(§5) The stock solution of Compound 26 (500 μg/ml) was prepared fresh by directly dissolving Compound 26 in cell culture medium and used. Cells were treated with dimethyl sulfoxide (DMSO, 0.1% v/v) or nocodazole (5 μg/ml dissolved in DMSO) as controls. At the end of the treatment period, metabolic activities of cells were quantified by MTS-based cell viability assay. […] After 24 h treatment with Compound 26, A549 cells (c) and hDFs (d) were fixed, fluorescently stained with rhodamine-phalloidin (red), alexa fluor 488 conjugated anti-α-tubulin (green) and Hoechst 33342 (blue) and imaged using IN Cell Analyzer 2200 automated microscope. Representative images of cells treated with Compound 26 (62.5 μg/ml for 24 h) or nocodazole (10 μg/ml, toxicity control) are shown in FIG. 2 c,d.

[14] = system: human lung epithelial cell line A549; experiment: in vitro
Method: as §4, §5

in vitro = conditions: human
Method: as §4, §5

[15] = rabbit; 50 μl of 0.3% (w/v) topically 4 times/day; fluorescein staining
Method: The in vivo toxicity of Compound 26 in a rabbit corneal damage model was examined. A 50 μl of 0.3% (w/v) solution was applied topically (4 times/day) to the circularly debrided cornea and reepithelialisation was monitored by fluorescein staining. Vehicle alone served as control.

VRE 1008 = assay type: cell-based, Enterococcus faecalis
Method: (§6) Bacteria were grown on Mueller Hinton broth (oxoid). All incubations were at 37° C. Dilutions were carried out using Mueller Hinton. […] This process was repeated up to well 11. […] This was repeated three times. […] Results are tabulated in the Examples.

VRE 1004 = assay type: cell-based, Enterococcus faecalis
Method: as §6

VRE 1002 = assay type: cell-based, Enterococcus faecalis
Method: as §6

VRE 1001 = assay type: cell-based, Enterococcus faecalis
Method: as §6

S. aureus ATCC 29213 [16] = system: S. aureus ATCC 29213
MRSA 1003 = assay type: cell-based, Staphylococcus aureus
In short: as §3

[17] = system: Staphylococcus aureus ATCC 29213; conditions: reported for a teixobactin analogue; cited from earlier work
SA4299 = assay type: cell-based; conditions: Table 11
In short: as §3

SE12228 = assay type: cell-based
In short: as §3

Enterococcus = system: Enterococcus
In short: as §1

Molecule: CN[C@H](CC(C)C)C(=O)N[C@H]1C(=O)N[C@@H](CC(N)=O)C(=O)N[C@H]2C(=O)N[C@H]3C(=O)N[C@H](C(=O)N[C@H](C(=O)O)c4cc(O)cc(O)c4-c4cc3ccc4O)[C@H](O)c3ccc(c(Cl)c3)Oc3cc2cc(c3O[C@@H]2O[C@H](CO)[C@@H](O)[C@H](O)[C@H]2O[C@H]2C[C@](C)(N)[C@H](O)[C@H](C)O2)Oc2ccc(cc2Cl)[C@H]1O [Vancomycin, reference compound]
- MIC ([1]; Staphylococcus aureus, ATCC29213): 4 µg/mL (≈ 2.76 µM)
- MIC (ATCC 29212): > 4 µg/mL
- MIC (MRSA DR 42412 (sputum); Staphylococcus aureus, MRSA): 2 µg/mL (≈ 1.38 µM)
- MIC (MRSA DM21455 (eye); Staphylococcus aureus, MRSA): 2 µg/mL (≈ 1.38 µM)
- MIC (MRSA ATCC 700699; Staphylococcus aureus): 2 µg/mL (≈ 1.38 µM)
- MIC (VRE ATCC 700802; Enterococcus): > 4 µg/mL
- MIC (M. smegmatis ATCC 607): > 64 µg/mL

Molecule: CC[C@@H](C)[C@@H](NC(=O)[C@@H](CCCNC(=N)N)NC(=O)[C@H](CO)NC(=O)[C@@H](NC(=O)[C@@H](Cc1ccccc1)NC)[C@@H](C)CC)C(=O)N[C@H](C(=O)N[C@@H](CO)C(=O)N[C@H]1C(=O)N[C@@H](C)C(=O)N[C@@H](CC(C)C)C(=O)N[C@@H]([C@@H](C)CC)C(=O)O[C@H]1C)[C@@H](C)CC [Compound 26, D-Arg4-Leu10-teixobactin]
- activity against Pseudomonas aeruginosa (Gram negative bacteria) (Pseudomonas aeruginosa): inactive
- decrease in bacterial viability (time-kill) (S. aureus ATCC 29213 [2]): ≥log10 decrease in bacterial viability
- calculated frequency of resistance (MRSA ATCC 33591 [3]): < 10^−10
- resistant mutants, single step resistance (MRSA ATCC 33591 [3]; 5×, 10×, 20×MIC): could not be obtained
- MIC ([4]; Staphylococcus saprophyticus ATCC 49453, Table 11): <0.0625 µg/mL
- MIC [5]: 0.125 µg/mL (≈ 0.102 µM)
- MIC ([6]; Staphylococcus saprophyticus ATCC 15305, Table 11): <0.0625 µg/mL
- MIC ([7]; Staphylococcus saprophyticus ATCC 49907, Table 11): <0.0625 µg/mL
- MIC ([8]; Staphylococcus saprophyticus ATCC BAA 750, Table 11): <0.0625 µg/mL
- MIC [9]: 0.5 µg/mL (≈ 0.407 µM)
- mean corneal thickness (S. aureus ATCC 29213 [10]; 24 h post treatment, 0.3% topical): 92.3±12.5 μm
- mean corneal thickness (S. aureus ATCC 29213 [10]; 48 h post treatment, 0.3% topical): 121.7±3.2 μm
- cornea with detectable bacterial colonies (S. aureus ATCC 29213 [10]; after 8 dosages): Five out of six
- mean log10 CFU/tissue (S. aureus ATCC 29213 [10]; corneal tissues harvested after 8 dosages, ± standard error of the mean): 3.97±0.19 log10 CFU/tissue
- clinical appearance of infected cornea (slit lamp) (S. aureus ATCC 29213 [10]; mice, 0.3% topical, 8 doses from 6 h p.i.): remained clear and no signs of corneal defects
- MBC relative to MIC (S. aureus/MRSA strains): ≤ 4 times the MIC
- MIC ([1]; SA29213, Table 11): <0.0625 µg/mL
- MIC (VRE ATCC 29212): 0.5 µg/mL (≈ 0.407 µM)
- MIC (MRSA DR 42412 (sputum); DR 42412 (sputum)): 0.0313 µg/mL (≈ 0.0255 µM)
- MIC (MRSA DM21455 (eye); DM21455 (eye)): 0.0313 µg/mL (≈ 0.0255 µM)
- MIC (MRSA ATCC 700699; ATCC 700699): 0.25 µg/mL (≈ 0.203 µM)
- MIC (VRE ATCC 700802; ATCC 700802): 0.5 µg/mL (≈ 0.407 µM)
- MIC (MRSA) (MRSA ATCC 33591 [11]; Table 10): 0.125 µg/mL (≈ 0.102 µM)
- average MIC [12]: 0.27 µg/mL
- cell morphology, high content images [13]: absence of any cytoskeletal and nuclear disruption
- cell morphology, high content images [14]: absence of any cytoskeletal and nuclear disruption
- viability at 24 h, 250 µg/mL (in vitro; A549 lung epithelial cells): 80%
- viability at 24 h, 250 µg/mL (in vitro; primary dermal fibroblasts (hDFs)): 80%
- corneal wound closure / reepithelialisation versus PBS [15]: no significant difference in wound closure
- MIC (VRE 1008): 0.5 µg/mL (≈ 0.407 µM)
- MIC (VRE 1004): 0.25 µg/mL (≈ 0.203 µM)
- MIC (VRE 1002): 1 µg/mL (≈ 0.813 µM)
- MIC (VRE 1001): 0.5 µg/mL (≈ 0.407 µM)
- calculated frequency of resistance (S. aureus ATCC 29213 [16]): < 10^−10
- resistant mutants, single step resistance (S. aureus ATCC 29213 [16]; 5×, 10×, 20×MIC): could not be obtained
- MIC (MRSA 1003): 0.5 µg/mL (≈ 0.407 µM)

Molecule: Lys3-D-Lys4-Lys10-teixobactin
- reported MIC against Staphylococcus aureus ATCC 29213 [17]: 8 µg/mL

Molecule: CC[C@@H](C)[C@@H](NC(=O)[C@@H](CCCNC(=N)N)NC(=O)[C@H](CCCNC(=N)N)NC(=O)[C@@H](NC(=O)[C@@H](Cc1ccccc1)NC)[C@@H](C)CC)C(=O)N[C@H](C(=O)N[C@@H](CO)C(=O)N[C@H]1C(=O)N[C@@H](CCCNC(=N)N)C(=O)N[C@@H](CC(C)C)C(=O)N[C@@H]([C@@H](C)CC)C(=O)O[C@H]1C)[C@@H](C)CC [Compound 31, Arg3-D-Arg4-Arg9-Leu10-teixobactin] (H-[dNMeF]IR[dR][dI]IS[dT]RLI; ester 8-C)
- MIC ([4]; ATCC 49453): <0.0625 µg/mL
- MIC [5]: <0.0625 µg/mL
- MIC ([6]; ATCC 15305): 0.25 µg/mL (≈ 0.181 µM)
- MIC ([7]; ATCC 49907): <0.0625 µg/mL
- MIC (SA4299): 1 µg/mL (≈ 0.723 µM)
- MIC (SE12228): <0.0625 µg/mL
- MIC ([8]; ATCC BAA 750): <0.0625 µg/mL
- MIC [9]: 1 µg/mL (≈ 0.723 µM)
- MIC against Staphylococcus aureus ATCC 29213 [1]: 1 µg/mL (≈ 0.723 µM)
- MIC (VRE ATCC 29212): 4 µg/mL (≈ 2.89 µM)
- MIC (MRSA DR 42412 (sputum); DR 42412 (sputum)): 2 µg/mL (≈ 1.45 µM)
- MIC (MRSA DM21455 (eye); DM21455 (eye)): 2 µg/mL (≈ 1.45 µM)
- MIC (MRSA ATCC 700699; ATCC 700699): 2 µg/mL (≈ 1.45 µM)
- MIC (VRE ATCC 700802; ATCC 700802): 4 µg/mL (≈ 2.89 µM)
- MIC against MRSA ATCC 33591 (MRSA ATCC 33591 [11]): 1 µg/mL (≈ 0.723 µM)
- MIC in Enterococcus (Enterococcus): 2 to 8 µg/mL
- MIC (VRE 1008): 8 µg/mL (≈ 5.78 µM)
- MIC (VRE 1004): 4 µg/mL (≈ 2.89 µM)
- MIC (VRE 1002): 8 µg/mL (≈ 5.78 µM)
- MIC (VRE 1001): 2 µg/mL (≈ 1.45 µM)
- MIC (MRSA 1003): 2 µg/mL (≈ 1.45 µM)
